The target in one experiment is T1, Human DNA polymerase κ (Homo sapiens, UniProt Q9UBT6).
T1 construct: A truncated form of pol κ (i.e., hDINB1DC); 6xHis (C); made in house; host or cells: baculovirus expression system (insect cells)
T1 sequence (Q9UBT6 1-560 limits assumed): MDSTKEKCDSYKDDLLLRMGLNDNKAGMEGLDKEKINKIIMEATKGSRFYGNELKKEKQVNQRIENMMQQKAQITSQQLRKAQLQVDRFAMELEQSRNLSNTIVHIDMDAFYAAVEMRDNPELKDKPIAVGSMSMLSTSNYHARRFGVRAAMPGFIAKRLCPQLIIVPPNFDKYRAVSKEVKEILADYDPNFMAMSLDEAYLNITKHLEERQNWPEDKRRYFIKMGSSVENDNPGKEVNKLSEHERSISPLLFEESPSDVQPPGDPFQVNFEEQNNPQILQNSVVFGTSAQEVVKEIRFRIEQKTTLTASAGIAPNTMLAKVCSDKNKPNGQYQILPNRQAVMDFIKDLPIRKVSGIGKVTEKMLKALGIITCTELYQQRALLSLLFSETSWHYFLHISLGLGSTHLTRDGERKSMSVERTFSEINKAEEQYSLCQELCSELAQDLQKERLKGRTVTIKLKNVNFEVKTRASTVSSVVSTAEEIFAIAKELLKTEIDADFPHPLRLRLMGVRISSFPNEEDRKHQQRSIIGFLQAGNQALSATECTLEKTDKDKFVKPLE
As to the kind of experiment: DNA polymerase assay, human pol κ. The experiment is classed as biochemical. The source says:
(§1) Pol α was purified from calf thymus by immuno-affinity column chromatography as described by Tamai et al.. Recombinant rat pol β was purified from E. coli JMpβ5 as described by Date et al.. The human pol γ catalytic gene was cloned into pFastBac. Histidine-tagged enzyme was expressed using the BAC-TO-BAC HT Baculovirus Expression System according to the supplier's manual (LIFE TECHNOLOGIES, MD, USA) and purified using ProBoundresin (Invitrogen Japan, Tokyo, Japan). Human pols δ and ε were purified by the nuclear fractionation of human peripheral blood cancer cells (Molt-4) using the second subunit of pols δ and ε-conjugated affinity column chromatography, respectively. Recombinant human pols η and ι tagged with His6 at their C-terminal were expressed in SF9 insect cells using the baculovirus expression system, and were purified as described previously. A truncated form of pol κ (i.e., hDINB1DC) with 6 x His-tags attached at the C-terminal was overproduced using the BAC-to-BAC Baculovirus Expression System kit (GIBCO BRL, MD, USA) and purified as described previously. […]
For pols, poly(dA)/oligo(dT)12-18 (A/T = 2/1) and dTTP were used as the DNA template-primer and nucleotide (i.e., dNTP) substrate, respectively. […] Activity without the inhibitor was considered 100%, and the remaining activity at each concentration of the inhibitor was determined relative to this value. […]

A further experiment addresses T2, T7 RNA polymerase (Escherichia phage T7, UniProt P00573).
T2 construct: purchased Takara (Kyoto, Japan)
Kind of experiment: T7 RNA polymerase assay. The experiment is classed as biochemical.
Description: as §1
The primase activity of calf pol α, the activities of T7 RNA polymerase, T4 polynucleotide kinase and bovine DNase I were measured in standard assays according to the manufacturer's specifications as described by Tamiya-Koizumi et al., Nakayama et al., Soltis et al., and Lu and Sakaguchi, respectively.

Structures are written as SMILES.

Here are results for one compound from publication PMC6253949, “The Inhibitory Action of Kohamaic Acid A Derivatives on Mammalian DNA Polymerase β” (Molecules, 2008).

T2 sequence (P00573 whole entry): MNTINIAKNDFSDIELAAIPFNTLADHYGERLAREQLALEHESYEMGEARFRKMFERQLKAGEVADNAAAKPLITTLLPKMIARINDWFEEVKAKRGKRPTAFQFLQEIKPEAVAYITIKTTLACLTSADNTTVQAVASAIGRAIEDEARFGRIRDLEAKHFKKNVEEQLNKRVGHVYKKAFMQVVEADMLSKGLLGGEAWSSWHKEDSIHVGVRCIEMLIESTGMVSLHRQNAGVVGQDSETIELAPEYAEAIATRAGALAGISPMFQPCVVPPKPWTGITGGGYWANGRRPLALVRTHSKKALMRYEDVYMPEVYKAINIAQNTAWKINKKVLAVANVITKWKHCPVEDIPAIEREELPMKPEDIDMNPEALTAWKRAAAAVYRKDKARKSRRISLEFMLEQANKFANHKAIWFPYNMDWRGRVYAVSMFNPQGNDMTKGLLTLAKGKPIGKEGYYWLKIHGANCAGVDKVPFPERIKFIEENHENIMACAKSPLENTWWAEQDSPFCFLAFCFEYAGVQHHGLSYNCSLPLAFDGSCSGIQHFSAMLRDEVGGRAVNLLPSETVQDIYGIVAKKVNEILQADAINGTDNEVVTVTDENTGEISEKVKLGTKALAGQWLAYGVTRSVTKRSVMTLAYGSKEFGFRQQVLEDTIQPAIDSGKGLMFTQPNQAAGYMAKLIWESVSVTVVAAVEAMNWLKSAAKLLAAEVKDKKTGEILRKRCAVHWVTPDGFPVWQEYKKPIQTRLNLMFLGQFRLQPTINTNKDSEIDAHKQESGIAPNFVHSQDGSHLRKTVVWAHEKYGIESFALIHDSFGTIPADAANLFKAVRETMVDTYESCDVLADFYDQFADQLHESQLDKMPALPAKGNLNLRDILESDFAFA

The compound `CC1=CC[C@H]2C(C)(C)CCC[C@]2(C)[C@H]1CCCCCCCCCCCCCCCCC(=O)O` (relative stereo) [compound 11, (1S*,4aS*,8aS*)-17-(1,4,4a,5,6,7,8,8a-octahydro-2,5,5,8a-tetramethylnaphthalen-1-yl)heptadecanoic acid] had an IC50 against Human DNA polymerase κ of 7.2 ± 0.36 µM. Besides, at T7 RNA polymerase, the “Influence on T7 RNA polymerase activity” value was “not influenced”.

As a reminder, the IC50 is the concentration needed to halve the response being measured.
